Drawing on PubChem BioAssay AID463206 (Broad Institute, 2010), this text covers AC50 for 87 compounds.

The term AC50 denotes the concentration giving half of the maximal activity seen.

The source made the active and inactive calls.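 How the source made its calls: active means caspase luminescence falls with dose and the half-maximal concentration AC50 from the fitted curve is at or below a set limit; inconclusive means flat fit at 30 to 70% signal loss, or invalid fit; inactive means AC50 above the limit, or signal rises instead.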 Bounds are passed on as bounds.

The test has as its system INS-1E cytokine-induced caspase-3/7, Caspase-Glo luminescence, 48 h. In words: inhibitors of cytokine-induced caspase-3/7 activity, dose response, orthogonal assay for beta-cell apoptosis protection project, INS-1E rat cells, luminescence (AID 463206).
For the compound `CC(=O)N1CCCc2cc(S(=O)(=O)N3CCCC(C(=O)N4CCN(c5cccc(Cl)c5)CC4)C3)ccc21` (configuration not stated), the AC50 was > 26 µM (inactive).

On to `CCn1c(NN=O)nc2ccccc21`, for which the AC50 is > 26 µM (inactive).

Turning to `Clc1ccc(SCc2cc(N3CCOCC3)nc(-c3ccccn3)n2)cc1`, the AC50 was > 26 µM (inactive).

As for `O=C1C=C(N2CCOCC2)c2ccccc2C1=O`, the AC50 was > 26 µM (inactive).

As to `COc1ccc(NC(=O)CN(C)C(=O)/C=C/c2ccc(S(=O)(=O)N3CCCCCC3)cc2)cc1`, the AC50 is > 26 µM (inactive).

`CCOc1ccc(C(=O)c2cc([N+](=O)[O-])ccc2N2CCOCC2)cc1`: the concentration at half-maximal activity (AC50) is 0.83 µM.

As to `Oc1cccc2ccc(Nc3ccccn3)nc12`, the AC50 is > 26 µM (inactive).

With `Cc1ccc(C2(c3ccc(C)cc3)CC2C(=O)Nc2ccc([N+](=O)[O-])cc2O)cc1` (configuration not stated), the AC50 was > 26 µM (inactive).

With `CCC(=O)NC(c1ccc(OC)cc1)c1cc(Cl)c2cccnc2c1O` (configuration not stated), the AC50 was > 26 µM (inactive).

Regarding `Clc1cccc(N=C2NN=C(c3ccc4c(c3)OCCO4)CS2)c1`, the AC50 is > 26 µM (inactive).

For the compound `O=C(Oc1cccc2cccnc12)c1cccc(N2C(=O)C3C4CCC(C4)C3C2=O)c1` (configuration not stated), the AC50 was > 26 µM (inactive).

Regarding `Cc1ccc2nc(-c3ccccn3)c(NC3CCCC3)n2c1`, the AC50 was > 12 µM (inactive).

As for `COc1cccc(/C=N/Nc2ncnc3scc(-c4ccccc4)c23)c1O`, the AC50 was > 26 µM (inactive).

`O=c1cc(N2CCN(c3cccc(Cl)c3)CC2)[nH]c(=O)n1C1CCCCC1`: the AC50 is > 26 µM (inactive).

As for `Cc1sc2ncnc(NCC(O)c3ccccc3)c2c1C` (configuration not stated), the AC50 is 23.5 µM.

Regarding `Cc1cccc(NC(=O)Nc2cccc(Oc3c(F)c(F)c(F)c(F)c3F)c2)c1`, the AC50 was > 26 µM (inactive).

As to `Cc1[nH]c2ccccc2c1CN1CCN(c2ccccn2)CC1`, the AC50 is > 26 µM (inactive).

For `O=C(NCc1ccccc1)C1=C[C@@H](c2csc3ccccc23)C[C@@H](OCCCCO)O1`, the AC50 is > 26 µM (inactive).

On to `CCOC(=O)c1c(NC(=O)c2cc(-c3ccc(Cl)s3)nc3ccccc23)sc(C(N)=O)c1C`, for which the AC50 is > 26 µM (inactive).

For `N#CC(C#N)=NNc1ccc(-n2ccc(C(F)(F)F)n2)cc1`, the AC50 was > 26 µM (inactive).

In the case of `CCc1ccc(OCC(=O)NC(NC(=S)Nc2ccc(C)cc2C)C(Cl)(Cl)Cl)cc1` (configuration not stated), the AC50 was > 26 µM (inactive).

For `Cc1cc(C)nc(SCc2ccc(C(=O)N/N=C/c3cccc(O)c3O)cc2)n1`, the AC50 is > 26 µM (inactive).

As to `CCN1c2ccccc2N(C)C1(C)c1ccccc1` (configuration not stated), the AC50 is > 26 µM (inactive).

For the compound `O=S(=O)(c1ccc(NC(=S)NCc2cccnc2)cc1)N1CCCCC1`, the AC50 was > 26 µM (inactive).

As to `S=C(Nc1ccc(Nc2ccccc2)cc1)Nc1ccccn1`, the AC50 is > 26 µM (inactive).

Take `Cc1ccc2nc(-c3cccc(-c4cccc(Cl)c4)c3)c(NCc3ccccc3)n2c1`: the AC50 was > 26 µM (inactive).

As for `CCSC1=NCCN1C(=O)C(C)(C)Oc1ccc(Cl)cc1`, the AC50 was > 26 µM (inactive).

For the compound `CCN(CC)c1ccc(/C=N/NC(=O)c2cnccn2)c(O)c1`, the AC50 is > 26 µM (inactive).

On to `COc1ccc(OC)c(NC(=O)CSc2nnc(-c3cccnc3)s2)c1`, for which the AC50 is > 26 µM (inactive).

In the case of `Cc1ncc(CO)c(/C=N/NC(=O)c2cc3c(s2)CCCC3)c1O`, the AC50 was > 26 µM (inactive).

Consider `Cc1cc(C)nc(OC(=O)c2ccc(Cl)cc2Cl)n1`, for which the AC50 is > 26 µM (inactive).

For `O=C(N/N=C/c1cc([N+](=O)[O-])ccc1O)c1cccc(NC(=O)c2cccc(Cl)c2)c1`, the AC50 is > 26 µM (inactive).

In the case of `CC(C)(C)c1ccc(OCc2ccc(C(=O)N/N=C/c3ccc(O)c(O)c3)cc2)cc1`, the AC50 was > 26 µM (inactive).

In the case of `CN1/C(=C\C=C2/SC(=S)NC2=O)C(C)(C)c2ccccc21`, the AC50 is > 26 µM (inactive).

On to `CCCCNc1c(-c2ccc(-c3cccc(Cl)c3)cc2)nc2ccccn12`, for which the AC50 is > 26 µM (inactive).

For the compound `Cc1cccc(OCc2n(CC(=O)OC3CC(C)CCC3C(C)C)c3ccccc3[n+]2C)c1` (configuration not stated), the AC50 is > 26 µM (inactive).

Regarding `Cc1ccc(CSC(Nc2ccc(F)cc2)=C(C#N)C#N)cc1`, the AC50 is > 26 µM (inactive).

As to `CNc1nc(N)c([N+](=O)[O-])c(Nc2cccc(F)c2)n1`, the AC50 was > 26 µM (inactive).

With `Cc1ccc(C)c(NC(=S)NC(NC(=O)Cc2cccc3ccccc23)C(Cl)(Cl)Cl)c1` (configuration not stated), the AC50 was > 26 µM (inactive).

On to `C=C1CCc2c([nH]c3ccc(OCC(C)C)cc23)C1=O`, for which the AC50 was > 26 µM (inactive).

Take `CC1(C)CCN2CCC(C)(C)c3c(O)ccc1c32`: the AC50 is > 26 µM (inactive).

As for `CCC(=O)NC(c1ccc(C)cc1)c1cc([N+](=O)[O-])c2cccnc2c1O` (configuration not stated), the AC50 is > 26 µM (inactive).

For `CC(C)Oc1ccc(C(CCN)C2CCCCC2)cc1` (configuration not stated), the AC50 was > 26 µM (inactive).

`O=[N+]([O-])c1cc(Cl)cc(/C=N\Nc2ccccn2)c1O`: the AC50 is > 26 µM (inactive).

As for `CC(=O)N1CCN(c2ccc(Oc3ccc([N+](=O)[O-])c(C(F)(F)F)c3)cc2)CC1`, the AC50 was > 26 µM (inactive).

With `COc1cccc(/C=N/NC(=O)c2c(C)nc3ccc(Cl)cn23)c1O`, the AC50 was > 26 µM (inactive).

Regarding `N=c1c2c(-c3ccccc3)c(-c3ccccc3)n(Cc3ccco3)c2ncn1CCCN1CCOCC1`, the AC50 was 16.7 µM.

Turning to `O=C(c1cc(-c2cccc(O)c2)on1)N1CCN(C(c2ccccc2)c2ccccc2)CC1`, the AC50 is > 26 µM (inactive).

Take `CC(C)c1ccc2c(c1)C(N1CCNCC1)Cc1ccc(F)cc1S2` (configuration not stated): the AC50 was > 26 µM (inactive).

Take `COc1ccc(Cn2c(SCc3ccccc3C)nc3cc(OC)c(OC)cc3c2=N)cc1`: the AC50 was > 26 µM (inactive).

Take `O=c1cc(CSc2ccc(Cl)cc2)nc(-c2ccccn2)[nH]1`: the AC50 is > 26 µM (inactive).

On to `CCCCC[n+]1ccn(C2=C([O-])c3ccccc3C(=O)/C2=N\S(=O)(=O)c2ccc(Cl)cc2)c1`, for which the AC50 is > 26 µM (inactive).

`O=C(N/N=C/c1ccc([N+](=O)[O-])o1)c1ccc(O)cc1`: the AC50 was > 26 µM (inactive).

As to `CN(C)c1ccc(NC(=S)NC23CC4CC(CC(C4)C2)C3)cc1`, the AC50 is > 26 µM (inactive).

Take `Cc1ccn2c(Nc3ccccc3C)c(-c3ccccn3)nc2c1`: the AC50 was > 26 µM (inactive).

`NC1=NC[C@@H](CC2CCCCC2)N1CCc1cc(C(F)(F)F)cc(C(F)(F)F)c1`: the AC50 was > 26 µM (inactive).

As for `COc1ccc(C(=O)c2c(C(F)(F)F)oc3c2C(=O)c2ccccc2C3=O)cc1`, the AC50 is > 26 µM (inactive).

Consider `O=C(N/N=C/c1ccccc1O)/C(=C/c1ccccc1)CCO`, for which the AC50 was > 26 µM (inactive).

As to `Cc1ccc(N=Nc2c(O)ccc3n[nH]nc23)cc1`, the AC50 is > 26 µM (inactive).

Consider `Cc1ccccc1OCCn1c(C)nc2ccccc21`, for which the AC50 is > 26 µM (inactive).

Take `O=C(Nc1nc(-c2ccccn2)cs1)c1ccc(Br)s1`: the AC50 is > 26 µM (inactive).

As for `O=C(Nc1ccc([N+](=O)[O-])cc1)Nc1ccc(Cl)cc1F`, the AC50 is > 26 µM (inactive).

As to `COc1ccc(NS(=O)(=O)c2ccc(-c3cnc(C4CC4)o3)cc2)cc1OC`, the AC50 was > 26 µM (inactive).

With `CN(C1=C(NC(=O)c2ccc(Cl)cc2)C(=O)c2ccccc2C1=O)c1ccccc1`, the AC50 was > 26 µM (inactive).

Consider `O=C(NC1CCCC1)c1cc(COc2ccc3ncccc3c2)on1`, for which the AC50 was > 26 µM (inactive).

For `Cc1ccc2c(c1)S/C(=C/c1ccc[n+](C)c1)N2CCO`, the AC50 is > 26 µM (inactive).

For the compound `Cc1ccc(-c2cc(-c3ccccc3)cc(-c3ccccc3)[n+]2-c2ccccc2)cc1`, the AC50 is > 26 µM (inactive).

As for `COc1ccc(NC(=O)N(C)C[C@H]2Oc3c(NS(=O)(=O)c4ccc(F)cc4)cccc3C(=O)N([C@H](C)CO)C[C@@H]2C)cc1`, the AC50 was > 26 µM (inactive).

Regarding `COc1ccc2nc(C)cc(N/N=C/c3ccccc3)c2c1`, the half-maximal activity concentration (AC50) was 10.1 µM.

Regarding `Cc1c(C(=O)Nc2nc(-c3ccccn3)cs2)oc2ccccc12`, the AC50 is > 26 µM (inactive).

Take `CN1/C(=C\C(=O)c2ccco2)C(C)(C)c2ccccc21`: the AC50 was > 26 µM (inactive).

In the case of `Oc1cc(-c2ccc(N3CCCCC3)nc2)cc2cccnc12`, the AC50 is > 26 µM (inactive).

For the compound `CC1=NNC(=O)/C1=C\c1cn(-c2ccccc2)nc1-c1ccccc1`, the AC50 was > 26 µM (inactive).

As for `O=C1C(=O)c2ccc(-c3ccccc3)cc2-c2ccccc21`, the AC50 is > 26 µM (inactive).

For `c1ccc(-c2nc(N3CCCCCC3)c3ccccc3n2)nc1`, the AC50 was > 26 µM (inactive).

Consider `Cc1nc2c(=O)n(C)c(=O)nc-2n(C)n1`, for which the AC50 was > 26 µM (inactive).

Take `Cc1ccc(C)c(S(=O)(=O)Nc2ccc(O)c3ccccc23)c1`: the AC50 is > 26 µM (inactive).

With `Cn1nc(CC(=O)Nc2ccc3c(c2)OCCO3)c2ccccc2c1=O`, the AC50 was > 26 µM (inactive).

With `Cc1cccc(C2(c3cccc(C)c3)OC(=O)c3ccccc32)c1`, the AC50 was > 26 µM (inactive).

`Cn1cccc1/C=N/NC(=O)Cc1cccs1`: the AC50 is > 26 µM (inactive).

`C/C(=N\NC(=O)c1ccc(F)cc1)c1ccccn1`: the AC50 was > 26 µM (inactive).

Consider `O=C(NC(NC(=S)Nc1ccccc1)C(Cl)(Cl)Cl)c1cccc(Cl)c1` (configuration not stated), for which the AC50 was > 26 µM (inactive).

In the case of `Cc1cc(C)c2c(N)c3cccc(C)c3nc2n1`, the AC50 is 4.47 µM.

Regarding `CCCCCCCCCCn1c2c(c(=N)c3c1CCC3)CCC2`, the AC50 is > 26 µM (inactive).

In the case of `CC(C)CC[n+]1ccn(C2=C([O-])c3ccccc3C(=O)/C2=N\S(=O)(=O)c2ccccc2)c1`, the AC50 was > 26 µM (inactive).

For the compound `CCC(CO)Oc1cc(NCc2ccc(C(C)(C)C)cc2)c2ncn(C(C)C)c2c1` (configuration not stated), the AC50 was > 26 µM (inactive).

As for `O=C(COc1ccccc1-c1ccccc1)N/N=C/c1ccc2ccccc2c1`, the AC50 was > 12 µM (inactive).
